Data taken from ChEMBL document CHEMBL5604063, “ASAP - DENV-2 NS2B-NS3 protease fluorescence dose response” (2024).
Where “and” joins values, the source holds several entries; their conditions need not be identical. Identical values can stand only once.

The compounds below were run against Genome polyprotein (dengue virus type 2, UniProt P29990).
Genome polyprotein, sequence (P29990 1346-1475 limits assumed): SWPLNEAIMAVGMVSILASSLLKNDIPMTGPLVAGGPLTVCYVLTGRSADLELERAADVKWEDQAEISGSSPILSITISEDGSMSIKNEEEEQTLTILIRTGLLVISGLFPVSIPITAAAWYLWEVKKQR
Genome polyprotein, sequence (P29990 1476-2093 limits assumed): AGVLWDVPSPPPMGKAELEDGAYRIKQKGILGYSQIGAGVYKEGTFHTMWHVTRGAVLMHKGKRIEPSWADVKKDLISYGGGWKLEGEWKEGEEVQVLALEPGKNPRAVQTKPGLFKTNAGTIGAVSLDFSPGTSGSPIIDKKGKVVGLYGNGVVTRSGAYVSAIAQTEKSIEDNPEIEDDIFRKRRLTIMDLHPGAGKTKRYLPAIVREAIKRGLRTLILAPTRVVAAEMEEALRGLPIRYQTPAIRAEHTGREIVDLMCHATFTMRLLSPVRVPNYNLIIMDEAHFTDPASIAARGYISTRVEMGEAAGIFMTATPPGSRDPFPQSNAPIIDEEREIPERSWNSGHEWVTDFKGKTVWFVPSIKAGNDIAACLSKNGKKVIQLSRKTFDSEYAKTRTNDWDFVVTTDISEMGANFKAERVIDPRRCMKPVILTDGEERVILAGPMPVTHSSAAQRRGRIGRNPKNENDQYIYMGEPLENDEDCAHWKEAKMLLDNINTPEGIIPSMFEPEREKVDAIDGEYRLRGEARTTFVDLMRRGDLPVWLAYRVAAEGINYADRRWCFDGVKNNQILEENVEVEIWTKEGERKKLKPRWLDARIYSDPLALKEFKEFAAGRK
Type: functional, Thailand/16681/1984
In the case of `Cc1ncsc1C(=O)N[C@H](C(=O)Nc1cccc(CN)c1)c1ccc(OCc2ccccc2)cc1`, the IC50 is reported as > 99.5 µM.
With `CCn1nc(C)c(CN(C)Cc2ccc3c(c2)CCNCC3)c1C` the IC50 was > 99.5 µM.
In the case of `CCc1cc(F)ccc1CC(=O)N1CCCc2cc(CCN)ccc21`, the IC50 is reported as > 99.5 µM.
With `O=C(O)c1cc(Cl)ccc1NS(=O)(=O)c1ccc(OCc2ccncc2)cc1` the IC50 was > 99.5 µM.
In the case of `Cc1noc(C)c1C(=O)N[C@@H](C(=O)Nc1cccc(CN)c1)c1ccc(OCc2ccccc2)cc1`, the IC50 is reported as > 99.5 µM.
In the case of `O=C(NCCO)c1cc(Cl)ccc1NS(=O)(=O)c1ccc(Oc2ccccc2Cl)cc1`, the IC50 is reported as 68 µM.
For `Cn1cc(C(=O)N[C@@H](C(=O)Nc2cccc(CN)c2)c2ccc(OCc3ccccc3)cc2)cn1`, the IC50 was > 99.5 µM.
`NCc1cccc(NC(=O)[C@H](NC(=O)C2CCC2)c2ccc(OCc3ccccc3)cc2)c1` was tested, and the IC50 was > 99.5 µM.
With `N[C@H]1CCc2cc(-c3ccn(-c4ccccc4)n3)ccc2C1` the IC50 was > 99.5 µM.
For `O=C(O)c1cc2c(cc1NS(=O)(=O)c1ccc(F)cc1)CCC2`, the IC50 was > 99.5 µM.
Work on `CCc1ccccc1COc1ccc(S(=O)(=O)Nc2ccc(Cl)cc2C(=O)O)cc1` yielded an IC50 of 6.5 µM.
For `NCc1cccc(NC(=O)C[C@H](NC(=O)OCc2ccccc2)c2ccc(OC(F)(F)F)cc2)c1`, the IC50 was 42.9 µM and 44.6 µM.
With `Cc1ccc(F)c2c1CCN(Cc1ccn(C3CNC3)c1)C2` the IC50 was > 99.5 µM.
`N[C@]12CCC[C@](C(=O)NCc3ccc4c(c3)CCNCC4)(CC1)C2` was tested, and the IC50 was > 99.5 µM.
`NCc1cccc(NC(=O)C[C@H](NC(=O)OCc2ccccc2)c2ccc(Cl)c(Br)c2)c1` was tested, and the IC50 was 22.8 µM and 22.9 µM and 12.9 µM and 12.6 µM.
`CCn1nccc1-c1cccc([C@@H](NC(=O)OCc2ccccc2)C(=O)Nc2cccc(CN)c2)c1` was tested, and the IC50 was > 99.5 µM.
In the case of `CC(C)(C)c1cc(N2CCN(c3cccc4[nH]ncc34)CC2)nc(C(=O)O)n1`, the IC50 is reported as > 99.5 µM.
`NCCNC(=O)c1cc(Cl)ccc1NS(=O)(=O)c1ccc(Oc2ccccc2Cl)cc1` was tested, and the IC50 was > 99.5 µM.
`O=C(N[C@@H](C(=O)NCc1cn[nH]c1)c1ccc(OCc2ccccc2)cc1)OCc1ccccc1` was tested, and the IC50 was > 99.5 µM.
With `O=C(O)c1cc(Cl)ccc1NS(=O)(=O)c1ccc(OCc2nnnn2C2CCC2)cc1` the IC50 was > 99.5 µM.
In the case of `NCc1cccc(NC(=O)[C@H](NC(=O)OCc2ccccc2)c2ccc(Br)c(Cl)c2)c1`, the IC50 is reported as 11 µM and 8.42 µM and 6.79 µM and 9.88 µM and 12.5 µM and 8.05 µM.
For `NCc1cccc(NC(=O)[C@H](NC(=O)OCc2ccccc2)c2ccc(Br)c(F)c2)c1`, the IC50 was 88.2 µM.
In the case of `O=C(O)c1cc(Cl)ccc1NS(=O)(=O)c1ccc(OCc2cncnc2)cc1`, the IC50 is reported as > 99.5 µM.
With `Cc1cccnc1COc1ccc(S(=O)(=O)Nc2ccc(Cl)cc2C(=O)O)cc1` the IC50 was > 99.5 µM.
`O=C(N[C@@H](C(=O)NCc1cnccn1)c1ccc(OCc2ccccc2)cc1)OCc1ccccc1` was tested, and the IC50 was > 99.5 µM.
For `O=C(O)c1cc(Cl)ccc1NS(=O)(=O)c1ccc(NC2CCNCC2)nc1`, the IC50 was > 99.5 µM.
`N#Cc1c(C(F)F)cccc1N1CCC(n2ncc(N)c2C(F)(F)F)CC1` was tested, and the IC50 was > 99.5 µM.
In the case of `CCn1c(=O)c(N2C[C@H]3C[C@@]3(C(F)F)C2)nc2ccccc21`, the IC50 is reported as > 99.5 µM.
In the case of `Cc1cc(F)cc(N(C)C(=O)c2ccc(C3(CN)CC3)cc2)c1`, the IC50 is reported as > 99.5 µM.
For `NCc1cccc(NC(=O)[C@H]2[C@H]3CCCC[C@H]3[C@@H]2NC(=O)OCc2ccccc2)c1`, the IC50 was 95.5 µM.
In the case of `N[C@H]1CC[C@H](NC(=O)[C@@H](NC(=O)OCc2ccccc2)c2ccc(OCc3ccccc3)cc2)CC1`, the IC50 is reported as > 99.5 µM.
For `NCc1ccnc(CNC(=O)[C@@H](NC(=O)OCc2ccccc2)c2ccc(OCc3ccccc3)cc2)c1`, the IC50 was > 99.5 µM.
For `CCn1c(=O)c(N2CC[C@H](c3nccn3C)C2)nc2ccccc21`, the IC50 was > 99.5 µM.
In the case of `Cc1n[nH]cc1CC(=O)N1CCCC12CCN(C(=O)c1ccnc(CO)c1)CC2`, the IC50 is reported as > 99.5 µM.
`NCc1cccc(NC(=O)C[C@H](NC(=O)OCc2ccccc2)c2ccc(Cl)c(F)c2)c1` showed an IC50 of 97.6 µM.
With `CC[C@H]1CN(C(=O)c2ccc(C3(CN)CC3)cc2)Cc2ccccc21` the IC50 was > 99.5 µM.
In the case of `Cn1cnc2c1CN(Cc1ccc3c(c1)CCNCC3)CC2`, the IC50 is reported as > 99.5 µM.
In the case of `CCn1c(=O)c(N2CC[C@H](N3CCCC3=O)C2)nc2ccccc21`, the IC50 is reported as > 99.5 µM.
In the case of `CCn1c(=O)c(N2CC[C@H](c3cnccn3)C2)nc2ccccc21`, the IC50 is reported as > 99.5 µM.
`NCc1cccc(NC(=O)[C@@H]2Cc3ccc(OCc4ccccc4)cc3CN2C(=O)OCc2ccccc2)c1` gave an IC50 of 86.7 µM.
For `NCC1(c2ccc(C(=O)N3CCc4scc(Br)c4C3)cc2)CC1`, the IC50 was > 99.5 µM.
In the case of `CCn1c(=O)c(N2CC[C@]3(CCNC3=O)C2)nc2ccccc21`, the IC50 is reported as > 99.5 µM.
In the case of `NCc1cccc(CNC(=O)[C@@H](NC(=O)OCc2ccccc2)c2ccc(OCc3ccccc3)cc2)n1`, the IC50 is reported as > 99.5 µM.
In the case of `NCc1cccc(NC(=O)[C@]2(NC(=O)OCc3ccccc3)COc3cc(Br)ccc32)c1`, the IC50 is reported as > 99.5 µM.
For `Cc1ccc(CNC(=O)[C@@H](NC(=O)OCc2ccccc2)c2ccc(OCc3ccccc3)cc2)cn1`, the IC50 was > 99.5 µM.
In the case of `CCn1c(=O)c(N2C[C@H]3COC[C@@]3(C)C2)nc2ccccc21`, the IC50 is reported as > 99.5 µM.
With `CC(C)CNC(=O)c1cc(Cl)ccc1C=Cc1ccc(Oc2ccccc2Cl)cc1` the IC50 was > 99.5 µM.
For `NCc1ccc(CNC(=O)[C@@H](NC(=O)OCc2ccccc2)c2ccc(OCc3ccccc3)cc2)cc1`, the IC50 was 16 µM and 8.53 µM and 8.03 µM.
In the case of `NCc1ccccc1C1CCN(C(=O)[C@@]23CNC[C@]2(C(F)(F)F)C3)CC1`, the IC50 is reported as > 99.5 µM.
For `CCn1c(=O)c(N2CC[C@H](c3ccccc3)C2)nc2ccccc21`, the IC50 was > 99.5 µM.
`CCOC(=O)c1cc(C(=O)N[C@H](C(=O)Nc2cccc(CN)c2)c2ccc(OCc3ccccc3)cc2)n(C)n1` was tested, and the IC50 was 24.3 µM and 24.8 µM.
`Cc1occ(C(F)(F)F)c1C(=O)N[C@H](C(=O)Nc1cccc(CN)c1)c1ccc(OCc2ccccc2)cc1` was tested, and the IC50 was > 99.5 µM.
In the case of `O=C(N[C@H](C(=O)NCc1ccccc1CO)c1ccc(OCc2ccccc2)cc1)OCc1ccccc1`, the IC50 is reported as > 99.5 µM.
For `NCc1cccc(NC(=O)[C@H](NC(=O)[C@H]2CCOC2)c2ccc(OCc3ccccc3)cc2)c1`, the IC50 was > 99.5 µM.
With `NCc1cccc(NC(=O)[C@H](NC(=O)c2ccccc2Cl)c2ccc(OCc3ccccc3)cc2)c1` the IC50 was 45.8 µM.
Work on `C[C@]1(C(=O)N[C@H](C(=O)Nc2cccc(CN)c2)c2ccc(OCc3ccccc3)cc2)COc2ccccc2O1` yielded an IC50 of 52.3 µM.
Compound `O=C(NC1CCCCC1)c1cc(Cl)ccc1NS(=O)(=O)c1ccc(Oc2ccccc2Cl)cc1` has an IC50 of 13.7 µM.
`NCc1cccc(NC(=O)[C@@H](NC(=O)OCc2ccccc2)c2ccc(OCc3ncccn3)cc2)c1` was tested, and the IC50 was > 99.5 µM.
With `NCc1cccc(NC(=O)[C@H]2[C@H]3CCCCC[C@H]3[C@H]2NC(=O)OCc2ccccc2)c1` the IC50 was 23.2 µM and 34.2 µM and 10.4 µM and 9.2 µM and 8.71 µM.
With `Cc1cc(-c2cccc([C@@H](NC(=O)OCc3ccccc3)C(=O)Nc3cccc(CN)c3)c2)ccn1` the IC50 was > 99.5 µM.
For `CCn1c(=O)c(N2C[C@H]3CCS(=O)(=O)[C@H]3C2)nc2ccccc21`, the IC50 was > 99.5 µM.
With `NCc1cccc(NC(=O)[C@H]2c3ccc(Br)cc3OCCN2C(=O)OCc2ccccc2)c1` the IC50 was > 99.5 µM.
`NC[C@H]1CC[C@@H](CNC(=O)[C@@H](NC(=O)OCc2ccccc2)c2ccc(OCc3ccccc3)cc2)CC1` gave an IC50 of 85.6 µM.
In the case of `NCc1cccc(NC(=O)[C@H](NC(=O)OCc2ccccc2)c2ccc(CO)cc2)c1`, the IC50 is reported as > 99.5 µM.
In the case of `NCc1cccc(NC(=O)[C@H](NS(=O)(=O)c2ccc(Oc3ccccc3Cl)cc2)c2ccc(OCc3ccccc3)cc2)c1`, the IC50 is reported as > 99.5 µM.
In the case of `CCCCCN(C)C(=O)c1cc(Cl)ccc1NS(=O)(=O)c1ccc(Oc2ccccc2Cl)cc1`, the IC50 is reported as 17.8 µM.
In the case of `Cc1ccc([C@H]2[C@H](C)CN2C(=O)c2ccc(C(F)(F)CN)cc2)cc1`, the IC50 is reported as > 99.5 µM.
For `CN(C)CCc1ccc(CNC(=O)[C@@H](NC(=O)OCc2ccccc2)c2ccc(OCc3ccccc3)cc2)cc1`, the IC50 was > 99.5 µM.
For `O=C(N[C@H](C(=O)NCc1cccc(CO)n1)c1ccc(OCc2ccccc2)cc1)OCc1ccccc1`, the IC50 was > 99.5 µM.
`O=C(O)c1ccc(F)c(F)c1NS(=O)(=O)c1ccc(Oc2ccccc2Cl)cc1` gave an IC50 of 31.1 µM.
With `CCn1c(=O)c(N2C[C@@H]3C[C@]3(CO)C2)nc2ccccc21` the IC50 was > 99.5 µM.
With `O=C(N[C@@H](C(=O)NCc1cccc2c1CCNC2)c1ccc(OCc2ccccc2)cc1)OCc1ccccc1` the IC50 was 53.5 µM.
With `C[C@@H](NC(=O)C1CCN(c2cccc(C(N)=O)n2)CC1)[C@H]1CCCNC1` the IC50 was > 99.5 µM.
With `CCn1c(=O)c(N2C[C@H](O)C3(CC3)C2)nc2ccccc21` the IC50 was > 99.5 µM.
In the case of `CCc1n[nH]cc1-c1cccc([C@H](NC(=O)OCc2ccccc2)C(=O)Nc2cccc(CN)c2)c1`, the IC50 is reported as > 99.5 µM.
For `CCn1c(=O)c(N2C[C@@H]3[C@H](C2)[C@H]2CC[C@@H]3O2)nc2ccccc21`, the IC50 was > 99.5 µM.
For `NCc1cccc(NC(=O)[C@H]2[C@H]3CCC[C@H]3[C@@H]2NC(=O)OCc2ccccc2)c1`, the IC50 was > 99.5 µM.
In the case of `NCc1cccc(NC(=O)C[C@H](NC(=O)OCc2ccccc2)c2ccc(C(F)(F)F)cc2)c1`, the IC50 is reported as 58.1 µM.
Work on `O=C(O)c1c(F)cc(F)cc1NS(=O)(=O)c1ccc(Oc2ccccc2Cl)cc1` yielded an IC50 of 41.5 µM.
In the case of `NC[C@H]1CC[C@H](NC(=O)[C@@H](NC(=O)OCc2ccccc2)c2ccc(OCc3ccccc3)cc2)CC1`, the IC50 is reported as > 99.5 µM.
For `CCN(CC(=O)NC)C(=O)c1cc(Cl)ccc1NS(=O)(=O)c1ccc(Oc2ccccc2Cl)cc1`, the IC50 was 70 µM.
For `N[C@@H](Cc1c[nH]cn1)C(=O)N1CCC2(CC1)OCCc1cc(O)ccc12`, the IC50 was > 99.5 µM.
In the case of `NC[C@H]1C[C@@H](NC(=O)c2cc(Cl)ccc2NS(=O)(=O)c2ccc(Oc3ccccc3Cl)cc2)C1`, the IC50 is reported as > 99.5 µM.
`CN(C)CCNC(=O)[C@H](NC(=O)OCc1ccccc1)c1ccc(OCc2ccccc2)cc1` was tested, and the IC50 was > 99.5 µM.
For `NCc1ccc2c(c1)CCC[C@H]2NCc1cc(Cl)cc2c1OCC2`, the IC50 was > 99.5 µM.
For `NCc1cccc(NC(=O)C[C@H](NC(=O)OCc2ccccc2)C2CCCCC2)c1`, the IC50 was 67.1 µM and 69.7 µM.
In the case of `O=C(N[C@@H](C(=O)NCC1CCNCC1)c1ccc(OCc2ccccc2)cc1)OCc1ccccc1`, the IC50 is reported as > 99.5 µM.
In the case of `NCc1cccc(NC(=O)[C@H](NC(=O)Cn2cccn2)c2ccc(OCc3ccccc3)cc2)c1`, the IC50 is reported as > 99.5 µM.
With `NC[C@H]1CC[C@H](CNC(=O)[C@@H](NC(=O)OCc2ccccc2)c2ccc(OCc3ccccc3)cc2)CC1` the IC50 was > 99.5 µM.
For `C[C@]1(C(=O)N[C@H](C(=O)Nc2cccc(CN)c2)c2ccc(OCc3ccccc3)cc2)CCCO1`, the IC50 was > 99.5 µM.
For `CCn1ccnc(N2CC(=O)[C@@H](c3c[nH]c4ccccc34)C2)c1=O`, the IC50 was > 99.5 µM.
Compound `O=S(=O)(Nc1ccc(Cl)cc1CN(CC1CC1)CC1CC1)c1ccc(Oc2ccccc2Cl)cc1` has an IC50 of 67.1 µM.
`O=C(NCc1nnn[nH]1)c1cc(Cl)ccc1NS(=O)(=O)c1ccc(Oc2ccccc2Cl)cc1` gave an IC50 of 64.5 µM.
`NCc1cccc(NC(=O)C[C@H](NC(=O)OCc2ccccc2)c2ccc(Br)cc2)c1` showed an IC50 of 51.8 µM.
`NCc1ccc(-c2ccc(OCC3CCNCC3)nc2-c2ccc(-c3ccoc3)cc2)cc1` gave an IC50 of 67.1 µM.
